# From paper PMC6707612, “Cyclic-di-GMP binds to histidine kinase RavS to control RavS-RavR phosphotransfer and regulates the bacterial lifestyle transition between virulence and swimming” (PLoS Pathogens, 2019)
# Target: T1, RavR^ΔEAL (Xanthomonas campestris pv. campestris, UniProt Q8P9A7)
# T1 sequence (Q8P9A7 with tags, fused parts or gaps): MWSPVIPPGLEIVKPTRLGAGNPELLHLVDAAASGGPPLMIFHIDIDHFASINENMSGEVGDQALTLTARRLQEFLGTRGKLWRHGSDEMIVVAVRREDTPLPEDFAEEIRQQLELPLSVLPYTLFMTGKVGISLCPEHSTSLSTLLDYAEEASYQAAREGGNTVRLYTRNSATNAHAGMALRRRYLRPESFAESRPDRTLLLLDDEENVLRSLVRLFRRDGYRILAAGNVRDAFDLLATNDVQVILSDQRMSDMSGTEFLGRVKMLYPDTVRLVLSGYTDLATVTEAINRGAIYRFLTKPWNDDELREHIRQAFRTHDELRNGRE
# Test: microscale thermophoresis (MST) binding
# Conditions: 20 nM fluorescein-labelled nucleotide
structure (smiles),measurement,value
"Nc1nc2c(ncn2[C@@H]2O[C@@H]3COP(=O)(O)O[C@H]4[C@@H](O)[C@H](n5cnc6c(=O)[nH]c(N)nc65)O[C@@H]4COP(=O)(O)O[C@H]3[C@H]2O)c(=O)[nH]1 [c-di-GMP, Cyclic di-GMP]",dissociation constant (Kd),did not bind
